pEC50: −log10 of the molar value. Where a name gives a salt, the structure may show the parent alone. Read-outs that look alike come from different tables or passages of the source.
Key:
[1] = Metabolic stability in liver microsomes, MLM; conditions: 1 μM, NADPH
Description: (§1) The microsomal suspension was prepared by adding liver microsomes to 100 mM potassium phosphate buffer (pH7.4) to give a final protein concentration of 0.5 mg/mL. The stock solution of NCE (10 mM in DMSO) was added to the microsomes to provide a final concentration of 1 μM. […] Samples were vortexed and centrifuged at 5,000 rpm for 10 min to remove proteins. Supernatant were analyzed on LC-MS/MS.

[2] = Metabolic stability in liver microsomes, HLM; conditions: 1 μM, NADPH
Description: as §1

MM1S = experiment: Anticancer activity: Alamar Blue assay, MM1S; assay type: cell-based; conditions: Homo sapiens, MM1.S, read-out: MM1S EC50
Description: Cells were seeded at 5000 cells/per well in 96-well tissue culture plate and incubated at 37° C./5% CO2. After 16-24 hours, fresh media was added to the wells. Compounds were then (1% DMSO conc.) added to the cells at 10 concentrations ranging from 10-0.0005 uM prepared in 3-fold serial dilutions. Cells were incubated for 68-72 h at 37° C./5% CO2. Alamar Blue™ reagent was added and incubated for 1-3 hours at 37° C./5% CO2. Plates were read on fluorescence reader at 540 nm excitation, 590 nm emission wave lengths.

O=C(/C=C/c1ccc(CNC2CC2c2ccc(C3CC3)cc2)cc1)NO (stereo not drawn) [Example 1, (E)-3(4(((2(4cyclopropylphenyl)cyclopropl)amino)methyl)phenyl)-N-hydroxyacrylamide]
Metabolic stability MLM % remaining in 30 min [1]: 5%
Metabolic stability HLM % remaining in 30 min [2]: 21%

O=C(/C=C/c1ccc(CNC2CC2c2ccc(F)cc2)cc1)NO (stereo not drawn) [Example 2, (E)-3-(4-{[2-(4-Fluoro-phenyl)-cyclopropylamino]-methyl}-phenyl)-N-hydroxy-acrylamide TFA Salt]
Metabolic stability MLM % remaining in 30 min [1]: 19%
Metabolic stability HLM % remaining in 30 min [2]: 41%

O=C(/C=C/c1ccc(CNC2CC2c2ccc(OCc3ccc(F)cc3)cc2)cc1)NO (stereo not drawn) [Example 3, (E)-3-(4-(((2-(4-((4-fluorobenzyl)oxy)phenyl)cyclopropyl)amino)methyl)phenyl)-N-hydroxyacrylamide TFA Salt]
pEC50 (MM1S): 6.98
Metabolic stability MLM % remaining in 30 min [1]: < 5%
Metabolic stability HLM % remaining in 30 min [2]: 65%

Cc1noc(C)c1-c1ccc(C2CC2NCc2ccc(/C=C/C(=O)NO)cc2)cc1 (stereo not drawn) [Example 6, (E)-3-(4-(((2-(4-(3,5-dimethylisoxazol-4-yl)phenyl)cyclopropyl)amino)methyl)phenyl)-N-hydroxyacrylamide TFA Salt]
pEC50 (MM1S): 7.47
Metabolic stability MLM % remaining in 30 min [1]: < 5%
Metabolic stability HLM % remaining in 30 min [2]: 44%

O=C(NO)c1cnc(N2CCC(NC3CC3c3ccccc3)CC2)nc1 (stereo not drawn) [Example 9, 2-[4-(2-Phenyl-cyclopropylamino)-piperidin-1-yl]-pyrimidine-5-carboxylic Acid Hydroxyamide TFA Salt]
pEC50 (MM1S): 8.40
Metabolic stability MLM % remaining in 30 min [1]: 50%
Metabolic stability HLM % remaining in 30 min [2]: 65%

O=C(NO)c1cnc(N2CCC(NC3CC3c3ccc(F)cc3)CC2)nc1 (stereo not drawn) [Example 10, 2-{4-[2-(4-Fluoro-phenyl)-cyclopropylamino]-piperidin-1-yl}-pyrimidine-5-carboxylic acid hydroxyamide TFA salt]
pEC50 (MM1S): 8.05
Metabolic stability MLM % remaining in 30 min [1]: 55%
Metabolic stability HLM % remaining in 30 min [2]: 81%

O=C(NO)c1cnc(N2CCC(CNC3CC3c3ccc(OCc4ccc(F)cc4)cc3)CC2)nc1 (stereo not drawn) [Example 11, 2-(4-(((2-(4-((4-fluorobenzyl)oxy)phenyl)cyclopropyl)amino)methyl)piperidin-1-yl)-N-hydroxypyrimidine-5-carboxamide TFA Salt]
pEC50 (MM1S): 7.74
Metabolic stability MLM % remaining in 30 min [1]: 14%
Metabolic stability HLM % remaining in 30 min [2]: 44%

O=C(NO)c1cnc(N2CCC(NC3CC3c3ccc(-c4ccc(Cl)cc4)cc3)CC2)nc1 (stereo not drawn) [Example 13, 2-(4-((2-(4′-chloro-[1,1′-biphenyl]-4-yl)cyclopropyl)amino)piperidin-1-yl)-N-hydroxypyrimidine-5-carboxamide TFA Salt]
pEC50 (MM1S): 7.62
Metabolic stability MLM % remaining in 30 min [1]: 23%
Metabolic stability HLM % remaining in 30 min [2]: 57%

O=C(NO)c1cnc(N2CCC(CNC3CC3c3ccc(-c4ccc(Cl)cc4)cc3)CC2)nc1 (stereo not drawn) [Example 14, 2-(4-(((2-(4′-chloro-[1,1′-biphenyl]-4-yl)cyclopropyl)amino)methyl)piperidin-1-yl)-N-hydroxypyrimidine-5-carboxamide TFA Salt]
pEC50 (MM1S): 8.10
Metabolic stability MLM % remaining in 30 min [1]: 82%
Metabolic stability HLM % remaining in 30 min [2]: 88%

Cc1noc(C)c1-c1ccc(C2CC2NCC2CCN(c3ncc(C(=O)NO)cn3)CC2)cc1 (stereo not drawn) [Example 16, 2-(4-(((2-(4-(3,5-dimethylisoxazol-4-yl)phenyl)cyclopropyl)amino)methyl)piperidin-1-yl)-N-hydroxypyrimidine-5-carboxamide TFA Salt]
pEC50 (MM1S): 7.77
Metabolic stability MLM % remaining in 30 min [1]: 25%
Metabolic stability HLM % remaining in 30 min [2]: 47%

O=C(NO)c1cnc(N2CCC(CNC3CC3c3ccc(-c4cncnc4)cc3)CC2)nc1 (stereo not drawn) [Example 17, N-hydroxy-2-(4-(((2-(4-(pyrimidin-5-yl)phenyl)cyclopropyl)amino)methyl)piperidin-1-yl)pyrimidine-5-carboxamide TFA Salt]
pEC50 (MM1S): 7.77
Metabolic stability MLM % remaining in 30 min [1]: 57%
Metabolic stability HLM % remaining in 30 min [2]: 69%

COc1ccc(C2CC2NCC2CCN(c3ncc(C(=O)NO)cn3)CC2)cc1 (stereo not drawn) [Example 18, N-hydroxy-2-(4-(((2-(4-methoxyphenyl)cyclopropyl)amino)methyl)piperidin-1-yl)pyrimidine-5-carboxamide TFA Salt]
pEC50 (MM1S): 8.52
Metabolic stability MLM % remaining in 30 min [1]: 28%
Metabolic stability HLM % remaining in 30 min [2]: 41%

COc1ccc(C2CC2NC2CCN(c3ncc(C(=O)NO)cn3)CC2)cc1 (stereo not drawn) [Example 19, N-hydroxy-2-(4-((2-(4-methoxyphenyl)cyclopropyl)amino)piperidin-1-yl)pyrimidine-5-carboxamide TFA Salt]
pEC50 (MM1S): 8.15
Metabolic stability MLM % remaining in 30 min [1]: 71%
Metabolic stability HLM % remaining in 30 min [2]: 83%

O=C(NO)c1cnc(N2CCn3cc(CNC4CC4c4ccccc4)nc3C2)nc1 (stereo not drawn) [Example 23, N-hydroxy-2-(2-(((2-phenylcyclopropyl)amino)methyl)-5,6-dihydroimidazo[1,2-a]pyrazin-7(8H)-yl)pyrimidine-5-carboxamide TFA Salt]
pEC50 (MM1S): 7.96
Metabolic stability MLM % remaining in 30 min [1]: 85%
Metabolic stability HLM % remaining in 30 min [2]: 95%

COc1ccc(C2CC2NCc2cn3c(n2)CN(c2ncc(C(=O)NO)cn2)CC3)cc1 (stereo not drawn) [Example 24, N-hydroxy-2-(2-(((2-(4-methoxyphenyl)cyclopropyl)amino)methyl)-5,6-dihydroimidazo[1,2-a]pyrazin-7(8H)-yl)pyrimidine-5-carboxamide TFA Salt]
pEC50 (MM1S): 8.05
Metabolic stability MLM % remaining in 30 min [1]: 74%
Metabolic stability HLM % remaining in 30 min [2]: 71%

O=C(NO)c1cnc(N2CCn3cc(CNC4CC4c4ccc(F)cc4)nc3C2)nc1 (stereo not drawn) [Example 25, 2-(2-(((2-(4-fluorophenyl)cyclopropyl)amino)methyl)-5,6-dihydroimidazo[1,2-a]pyrazin-7(8H)-yl)-N-hydroxypyrimidine-5-carboxamide TFA Salt]
pEC50 (MM1S): 7.96
Metabolic stability MLM % remaining in 30 min [1]: 85%
Metabolic stability HLM % remaining in 30 min [2]: 75%

O=C(NO)c1cccc(CNC2CC2c2ccc(Br)cc2)c1 (stereo not drawn) [Example 26, 3-(((2-(4-bromophenyl)cyclopropyl)amino)methyl)-N-hydroxybenzamide TFA Salt]
Metabolic stability MLM % remaining in 30 min [1]: 13%
Metabolic stability HLM % remaining in 30 min [2]: 30%

O=C(CCCCCNC1CC1c1ccccc1)NO (stereo not drawn) [Example 29, N-hydroxy-6-((2-phenylcyclopropyl)amino)hexanamide TFA Salt]
Metabolic stability MLM % remaining in 30 min [1]: 90%
Metabolic stability HLM % remaining in 30 min [2]: > 95%

O=C(NO)c1ccc(CCCNC2CC2c2ccc(F)cc2)cc1 (stereo not drawn) [Example 30, 4-(3-((2-(4-fluorophenyl)cyclopropyl)amino)propyl)-N-hydroxybenzamide TFA Salt]
pEC50 (MM1S): 7.35
Metabolic stability MLM % remaining in 30 min [1]: 51%
Metabolic stability HLM % remaining in 30 min [2]: 16%

O=C(CCCCCCNC(=O)c1ccc(CNC2CC2c2ccccc2)cc1)NO (stereo not drawn) [Example 31, N-(6-Hydroxycarbamoyl-hexyl)-4-[(2-phenyl-cyclopropylamino)-methyl]-benzamide TFA Salt]
Metabolic stability MLM % remaining in 30 min [1]: 18%
Metabolic stability HLM % remaining in 30 min [2]: 39%

O=C(NO)c1ccc(CN2CCC(CNC3CC3c3ccccc3)CC2)cc1 (stereo not drawn) [Example 36, N-Hydroxy-4-{4-[(2-phenyl-cyclopropylamino)-methyl]-piperidin-1-ylmethyl}-benzamide TFA Salt]
Metabolic stability MLM % remaining in 30 min [1]: 53%
Metabolic stability HLM % remaining in 30 min [2]: 63%

Cc1noc(C)c1-c1ccc(C2CC2NCC2CN(CCCc3cccc(C(=O)NO)c3)C2)cc1 (stereo not drawn) [Example 65, 3-(3-(3-(((2-(4-(3,5-dimethylisoxazol-4-yl)phenyl)cyclopropyl)amino)methyl)azetidin-1-yl)propyl)-N-hydroxybenzamide TFA Salt]
pEC50 (MM1S; MM1S cells): 7.59

O=C(NO)c1ccc(CCCN2CCc3cc(CNC4CC4c4ccc(F)cc4)ccc3C2)cc1 (stereo not drawn) [Example 78, 4-(3-(6-(((2-(4-fluorophenyl)cyclopropyl)amino)methyl)-3,4-dihydroisoquinolin-2(1H)-yl)propyl)-N-hydroxybenzamide TFA Salt]
Metabolic stability MLM % remaining in 30 min [1]: 32%
Metabolic stability HLM % remaining in 30 min [2]: 72%

Nc1ccccc1NC(=O)/C=C/c1ccc(CNC2CC2c2ccc(F)cc2)cc1 (stereo not drawn) [Example 120]
Metabolic stability MLM % remaining in 30 min [1]: 16%
Metabolic stability HLM % remaining in 30 min [2]: 27%

Nc1ccccc1NC(=O)c1ccc(CCCN2CCC(CNC3CC3c3ccc(C(=O)N4CCCCC4)cc3)CC2)cc1 (stereo not drawn) [Example 125, N-(2-aminophenyl)-4-(3-(4-(((2-(4-(piperidine-1-carbonyl)phenyl)cyclopropyl)amino)methyl)piperidin-1-yl)propyl)benzamide TFA Salt]
Metabolic stability MLM % remaining in 30 min [1]: 49%
Metabolic stability HLM % remaining in 30 min [2]: 34%

Nc1ccccc1NC(=O)c1ccc(CCCN2CC(CNC3CC3c3ccc(F)cc3)C2)cc1 (stereo not drawn) [Example 126, N-(2-aminophenyl)-4-(3-(3-(((2-(4-fluorophenyl)cyclopropyl)amino)methyl)azetidin-1-yl)propyl)benzamide TFA Salt]
Metabolic stability MLM % remaining in 30 min [1]: 76%
Metabolic stability HLM % remaining in 30 min [2]: 79%
